Data reported in paper PMC6062912, “The Evolutionary Conserved γ-Core Motif Influences the Anti-Candida Activity of the Penicillium chrysogenum Antifungal Protein PAF” (Frontiers in Microbiology, 2018).
Like-named read-outs stand apart in the source and are kept apart here. Residues, ends and D or L forms follow the SMILES beside them.

Legend:
Format in all cases: cell-based, Candida albicans
C. albicans [1] = conditions: 10 min exposure, mean ± SD, untreated control 1.8 ± 1.2%
Procedure: (§1) To analyze changes in cell size and to assess kinetics of cell death of C. albicans upon antifungal treatment flow cytometry was applied. For both experiments, 10^4 cells mL^-1 was incubated in 0.05× PDB with the desired AMP concentration for different time points. The incubation was performed in 1.5 mL reaction tubes at 30°C under continuous shaking at 800 rpm in a Thermomixer Comfort (Eppendorf). After incubation, the cells were centrifuged at 4°C with 3,000 ×g for 3 min. For cell size determination, the supernatant was removed and the cells were resuspended and fixed in PBS containing 3.7% (v/v) formaldehyde before changes in cell size were measured by plotting SSC against FSC. C. albicans that were incubated at 95°C for 120 min served as controls. Microscopic control-images were taken with a fluorescence microscope (Axioplan, Zeiss), equipped with a camera (Axiocam 503 mono, Zeiss) and excitation/emission filters (365/420 nm for blue fluorescence and 546/590 or 565/620 nm for red fluorescence, Zeiss). Image acquisition was performed with ZEN 2 microscope software (Zeiss, blue edition) and the cell area was measured with ImageJ 1.52d software ([Schindelin et al., 2012]).
For dead-cell staining, prior to fixation, the cells were incubated in the dark for 30 min at 4°C with 100 μL PBS containing 0.1 μL LIVE/DEAD^TM Fixable Far Red Dead Cell Stain (Thermo Fisher Scientific). The cells were then washed once in PBS and fixed in PBS containing 3.7% formaldehyde. Ethanol-inactivated dead C. albicans served as a positive staining control. The samples were then analyzed by FACS (FACSVerse Flow Cytometer, BD Biosciences), equipped with BD FACSuite software (v1.0.6.5230, BD Biosciences). Dead cells were detected at Excitation/Emission wavelength of 650/665 nm. Stained, live, and dead Candida cells were used as controls to discriminate populations and to set the gates.
To elucidate the AMPs candidacidal activities at an early stage and to compare their time and dose-dependent cell killing in more detail, fluorescence activated cell sorting (FACS) analysis with dead-cell staining was applied. To this end, C. albicans was exposed to 1× and 2× MIC of the respective AMPs for 10 min, stained with the dead-cell marker, and fixed with formaldehyde. With FACS analyses, 1.8 ± 1.2% dead cells were detected in the untreated control (Figure 3).

C. albicans biofilms = assay: Anti-biofilm activity, FDA fluorescence; conditions: AMP 0–40 μM for 24 h at 30°C; for concentration inhibiting cell metabolism in biofilm (FDA fluorescence): 24-h-old biofilms; for concentration with anti-biofilm (inhibitory) activity, extinction of FDA fluorescence: 1 h old (young) biofilms
Procedure: The antifungal activity against C. albicans biofilms was determined in 96-well microtiter plates (Nunclon Delta, Thermo Fisher Scientific). Cells (10^5) in 100 μL 0.05× PDB were distributed per well and plates were incubated at 37°C for up to 24 h to allow biofilm formation. After cell adherence, the microtiter plates were washed once with 0.05× PDB and the test substances were added in increasing concentrations in 100 μL 0.05× PDB per well. H2O2 served as a control for cell killing. The plates were further incubated at 30°C for 24 h. The wells were washed once with 0.05× PDB and 100 μL of FDA solution (40 μg mL^-1 in 0.05× PDB) was added to the wells. Wells containing only FDA solution (40 μg mL^-1 in 0.05× PDB) were used as blank background control. The plates were incubated for 1 h at 37°C in the dark before the fluorescence signal intensity was measured in a multi-mode microplate reader (FLUOstar Omega, BMG Labtech) with excitation and emission wavelengths of 485 and 520 nm. All experiments were prepared at least in duplicates and repeated at least twice.
Next, we analyzed the potential of the AMPs to inhibit C. albicans biofilm formation. Low susceptibility of biofilms to antifungal agents is often a limiting factor in anti-Candida treatment. To this end, C. albicans cells were distributed in 96-well microtiter plates, allowed to settle down, and to develop biofilms for 1 and 24 h. Then, planktonic cells were washed off and AMPs were added to the biofilms for another 24 h in a concentration range of 0–40 μM. The biofilms were then quantified by adding FDA to the wells. Metabolically active cells convert non-fluorescent FDA into highly fluorescent fluorescein by intracellular enzymatic activity ([Peeters et al., 2008]). The resulting fluorescence signal intensity from AMP-treated biofilms was measured and compared to untreated conditions. […] Twenty-four-hour-old biofilms, however, were resistant against PAF, PAF^var, and PAF^opt in the investigated concentration range (data not shown).

C. albicans [2] = conditions: 2 h
Procedure: Fungistatic or fungicidal activities were determined by incubating C. albicans (10^4 cells mL^-1) in 0.05× PDB with proteins and peptides at 1× MIC and 2× MIC of at 30°C under continuous shaking (800 rpm) in a Thermomixer Comfort (Eppendorf). At defined time points, aliquots were taken and appropriate dilutions were plated on YPD agar in duplicates to promote growth of viable cells. Agar plates were incubated at 37°C for 24 h to count colony forming units (cfu) ([Huber et al., 2018]).
The determination of the MIC concentration is a well-established, reliable method to elucidate the growth reducing effect of an antifungal compound. […] To gain deeper insight into the antifungal mechanism of the generated protein and peptide variants, we compared them first for their fungicidal potential. In liquid culture C. albicans was exposed to 1× MIC and 2× MIC concentrations of each protein and peptide. After certain time points aliquots were taken and appropriate dilutions were spread on agar plates to allow colony formation of viable cells. The cfu were counted and compared to the untreated control, which was set to be 100%. […] The candidacidal effects were aggravated with higher protein concentrations.

C. albicans [3] = assay: Cell size reduction (FSC) by flow cytometry; conditions: 2× MIC, mean ± SD
Procedure: as §1
Cell shrinkage of C. albicans is a sign for cell death when exposed to AMPs ([Lee et al., 2017]). We therefore analyzed the changes in size of AMP-treated C. albicans cells by recording the FSC with flow cytometry. To this end, C. albicans cells were analyzed after 10 and 30 min of exposure to 1× MIC and 2× MIC of AMPs (Figure 5). Heat-killed and untreated C. albicans cells served as positive and negative controls, respectively (Supplementary Figure S8). […] Pγ^var and Pγ^opt caused a very prominent decrease in the FSC value compared to the untreated cell population when applied at 2× MIC. Pγ^var and Pγ^opt reduced the average cell size after a 10-min treatment by 28 ± 13 (P = 0.022) and 18 ± 10% (P = 0.041), respectively, and after 30 min the cell size was reduced by 48 ± 8 (P < 0.001) and 37 ± 12% (P = 0.007), respectively.

Compound | dead cells (cells killed), FACS dead-cell staining (C. albicans [1]; 1× MIC) [%] | dead cells (cells killed), FACS dead-cell staining (C. albicans [1]; 2× MIC) [%] | concentration inhibiting cell metabolism in biofilm (FDA fluorescence) (C. albicans biofilms) [µM] | concentration with anti-biofilm (inhibitory) activity, extinction of FDA fluorescence (C. albicans biofilms) [µM] | Candida cells killed (cfu vs untreated control) (C. albicans [2]; 1) [%] | Candida cells killed (cfu vs untreated control) (C. albicans [2]; 2) [%] | cell size reduction (change in FSC vs untreated cells) (C. albicans [3]; 10 min) [%] | cell size reduction (change in FSC vs untreated cells) (C. albicans [3]; 30 min) [%] | Candida cells killed (cfu vs untreated control) (C. albicans [2]; 1× MIC, 0.05× PDB, 30°C, mean ± SD)
CC(=O)N[C@@H](CCCCN)C(=O)N[C@@H](Cc1ccc(O)cc1)C(=O)N[C@H](C(=O)NCC(=O)N[C@@H](CCCCN)C(=O)N[C@@H](CS)C(=O)N[C@@H](CCCCN)C(=O)N[C@H](C(=O)N[C@@H](CCCCN)C(=O)N[C@@H](CCCCN)C(=O)N[C@@H](CC(N)=O)C(=O)N[C@@H](CCCCN)C(=O)N[C@@H](CS)C(=O)N[C@@H](CCCCN)C(N)=O)[C@@H](C)O)[C@@H](C)O [Pγ^opt] (Ac-KYTGKCKTKKNKCK-NH2) | 11.7 ± 0.3 | 27.4 ± 1.3 | 10 | 10 | 29 ± 10 | 88 ± 8 | 18 ± 10 | 37 ± 12 | 
CC(=O)N[C@@H](CCCCN)C(=O)N[C@@H](Cc1ccc(O)cc1)C(=O)N[C@H](C(=O)NCC(=O)N[C@@H](CCCCN)C(=O)N[C@@H](CS)C(=O)N[C@@H](Cc1ccc(O)cc1)C(=O)N[C@@H](CCCCN)C(=O)N[C@@H](CCCCN)C(=O)N[C@@H](CCCCN)C(=O)N[C@@H](CC(N)=O)C(=O)N[C@@H](CCC(=O)O)C(=O)N[C@@H](CS)C(=O)N[C@@H](CCCCN)C(N)=O)[C@@H](C)O [Pγ^var] (Ac-KYTGKCYKKKNECK-NH2) | 13.2 ± 3.2 | 27.1 ± 5.6 | 20 | 10 |  | 50 ± 28 | 28 ± 13 | 48 ± 8 | no killing effects
